Measured values published in patent US20260315464A1, “COMPOSITIONS, METHODS, AND SYSTEMS FOR MODULATING SPLICING OF MSH3” (REVIR THERAPEUTICS, INC., priority 2023, published 2026).
Blank lines part the entries; values can stand above or below the compound they belong to.

Tested on: MSH3
Experiment: QPCR assay for levels of MSH3 upon compound treatment in HEK293T or AD293 cells (fold-change of MSH3 transcript, EC50 of MSH3 downregulation; total MSH3 exons 13/14, exons 20/21; Table 8)
Type: cell-based
Settings: for mrna remaining at 1 µM / mrna remaining at 10 µM: Homo sapiens, fold-change of the MSH3 transcript, normalized to GAPDH; for mrna remaining at 1 µM: 1 μM compound; for mrna remaining at 10 µM: 10 μM compound; for EC50: EC50 of MSH3 downregulation, XtalPi
Experimental: HEK293T or AD293 cells were treated with Compound 274 at 1 μM and […]. RNA, cDNA and qPCR was prepared using TaqMan Cells-to-CT Express kit (ThermoFisher Scientific). Taqman assays (ThermoFisher Scientific) were used for quantification of total MSH3 exons 13/14 (cat #4351372, ID #: Hs00988993_ml), total MSH3 exons 20/21 (cat #4351372, ID #: Hs00989000_ml), exon 13/PE14A (Fwd: 5′-[…]; Rev: 5′-[…]; Probe: 5′-[…]) and exon 20/PE21A (Fwd: 5′-[…]; Rev: 5′-[…]; Probe: 5′-[…]) mRNA expression. Taqman GAPDH (cat #4448489, ID #: Hs02758991_g1) was used as a reference for data normalization.

Compound: Cc1nc(C)c(-c2cnc3c(c2)C(=O)N(c2cnc(N(C)[C@H]4C[C@]5(C)CC[C@](C)(C4)N5)nn2)C3)s1 [Compound 200, 6-(3-(((1R,3s,5S)-1,5-dimethyl-8-azabicyclo[3.2.1]octan-3-yl)(methyl)amino)-1,2,4-triazin-6-yl)-3-(2,4-dimethylthiazol-5-yl)-6,7-dihydro-5H-pyrrolo[3,4-b]pyridin-5-one]
mrna remaining at 1 µM: 53% | mrna remaining at 10 µM: 53%

Compound: Cn1cc(-c2cnc3c(c2)C(=O)N(c2ccc(O[C@H]4C[C@]5(C)CC[C@](C)(C4)N5)nn2)C3)c(C(F)(F)F)n1 [Compound 201, 6-(6-(((1R,3s,5S)-1,5-dimethyl-8-azabicyclo[3.2.1]octan-3-yl)oxy)pyridazin-3-yl)-3-(1-methyl-3-(trifluoromethyl)-1H-pyrazol-4-yl)-6,7-dihydro-5H-pyrrolo[3,4-b]pyridin-5-one]
mrna remaining at 1 µM: 90% | mrna remaining at 10 µM: 91%

Compound: COc1cc(OC2CC(C)(C)NC(C)(C)C2)nnc1N1Cc2ncc(-c3cn(C)nc3C)cc2C1=O [Compound 203, 3-(1,3-dimethyl-1H-pyrazol-4-yl)-6-(4-methoxy-6-((2,2,6,6-tetramethylpiperidin-4-yl)oxy)pyridazin-3-yl)-6,7-dihydro-5H-pyrrolo[3,4-b]pyridin-5-one]
mrna remaining at 1 µM: 56% | mrna remaining at 10 µM: 62%

EC50: 1420 nM
Compound: Cc1nn(C)cc1-c1cnc2c(c1)C(=O)N(c1ccc(OC3CC(C)(C)NC4(CC4)C3)nn1)C2 (centres unmarked) [Compound 205, 3-(1,3-dimethyl-1H-pyrazol-4-yl)-6-(6-((5,5-dimethyl-4-azaspiro[2.5]octan-7-yl)oxy)pyridazin-3-yl)-6,7-dihydro-5H-pyrrolo[3,4-b]pyridin-5-one]
mrna remaining at 1 µM: 90% | mrna remaining at 10 µM: 14%

EC50: 507 nM
Compound: Cc1nn(C)nc1-c1cnc2c(c1)C(=O)N(c1ccc(O[C@H]3C[C@]4(C)CC[C@](C)(C3)N4)nn1)C2 [Compound 206, 3-(2,5-dimethyl-2H-1,2,3-triazol-4-yl)-6-(6-(((1R,3s,5S)-1,5-dimethyl-8-azabicyclo[3.2.1]octan-3-yl)oxy)pyridazin-3-yl)-6,7-dihydro-5H-pyrrolo[3,4-b]pyridin-5-one]
mrna remaining at 1 µM: 36% | mrna remaining at 10 µM: 13%

EC50: ~3050 nM
Compound: Cc1nn(C)cc1-c1cnc2c(c1)C(=O)N(c1ccc(NC3CC(C)(C)NC(C)(C)C3)nn1)C2 [Compound 207, 3-(1,3-dimethyl-1H-pyrazol-4-yl)-6-(6-((2,2,6,6-tetramethylpiperidin-4-yl)amino)pyridazin-3-yl)-6,7-dihydro-5H-pyrrolo[3,4-b]pyridin-5-one]
mrna remaining at 1 µM: 108% | mrna remaining at 10 µM: 18%

Compound: Cc1nn(C)cc1-c1cnc2c(c1)C(=O)N(c1ccc(O[C@@H]3CC(C)(C)NC(C)(C)[C@@H]3F)nn1)C2 [Compound 211, 3-(1,3-dimethyl-1H-pyrazol-4-yl)-6-(6-(((3S,4R)-3-fluoro-2,2,6,6-tetramethylpiperidin-4-yl)oxy)pyridazin-3-yl)-6,7-dihydro-5H-pyrrolo[3,4-b]pyridin-5-one]
mrna remaining at 1 µM: 90% | mrna remaining at 10 µM: 55%

Compound: Cc1nn(C)cc1-c1cnc2c(c1)C(=O)N(c1ccc(O[C@@H]3C[C@@]4(C)CC[C@](C)(N4)[C@@H]3F)nn1)C2 [Compound 214, 3-(1,3-dimethyl-1H-pyrazol-4-yl)-6-(6-(((1S,2S,3R,5R)-2-fluoro-1,5-dimethyl-8-azabicyclo[3.2.1]octan-3-yl)oxy)pyridazin-3-yl)-6,7-dihydro-5H-pyrrolo[3,4-b]pyridin-5-one]
mrna remaining at 1 µM: 95% | mrna remaining at 10 µM: 24%

Compound: Cc1nn(C)cc1-c1cnc2c(c1)C(=O)N(c1ccc(O[C@@H]3C[C@@]4(C)CC[C@](C)(N4)[C@H]3F)nn1)C2 [Compound 215, 3-(1,3-dimethyl-1H-pyrazol-4-yl)-6-(6-(((1S,2R,3R,5R)-2-fluoro-1,5-dimethyl-8-azabicyclo[3.2.1]octan-3-yl)oxy)pyridazin-3-yl)-6,7-dihydro-5H-pyrrolo[3,4-b]pyridin-5-one]
mrna remaining at 1 µM: 97% | mrna remaining at 10 µM: 76%

Compound: CN(c1ncc(N2Cc3ncc(-c4cn(C)nc4F)cc3C2=O)nn1)[C@H]1C[C@]2(C)CC[C@](C)(C1)N2 [Compound 217, 6-(3-(((1R,3s,5S)-1,5-dimethyl-8-azabicyclo[3.2.1]octan-3-yl)(methyl)amino)-1,2,4-triazin-6-yl)-3-(3-fluoro-1-methyl-1H-pyrazol-4-yl)-6,7-dihydro-5H-pyrrolo[3,4-b]pyridin-5-one]
mrna remaining at 1 µM: 92% | mrna remaining at 10 µM: 78%

Compound: Cc1nn(C)cc1-c1cnc2c(c1)C(=O)N(c1ccc(OC3CCNC(C)(C)C3)nn1)C2 (centres unmarked) [Compound 226, 3-(1,3-dimethyl-1H-pyrazol-4-yl)-6-(6-((2,2-dimethylpiperidin-4-yl)oxy)pyridazin-3-yl)-6,7-dihydro-5H-pyrrolo[3,4-b]pyridin-5-one]
mrna remaining at 1 µM: 86% | mrna remaining at 10 µM: 58%

EC50: 792 nM
Compound: Cc1nn(C)nc1-c1cnc2c(c1)C(=O)N(c1ccc(OC3CC(C)(C)NC4(CC4)C3)nn1)C2 (centres unmarked) [Compound 228, 3-(2,5-dimethyl-2H-1,2,3-triazol-4-yl)-6-(6-((5,5-dimethyl-4-azaspiro[2.5]octan-7-yl)oxy)pyridazin-3-yl)-6,7-dihydro-5H-pyrrolo[3,4-b]pyridin-5-one]
mrna remaining at 1 µM: 58% | mrna remaining at 10 µM: 37%

EC50: 2040 nM
Compound: CC[C@]12CC[C@](CC)(C[C@@H](Oc3ccc(N4Cc5ncc(-c6cn(C)nc6C)cc5C4=O)nn3)C1)N2 [Compound 239, 6-(6-(((1R,3s,5S)-1,5-diethyl-8-azabicyclo[3.2.1]octan-3-yl)oxy)pyridazin-3-yl)-3-(1,3-dimethyl-1H-pyrazol-4-yl)-6,7-dihydro-5H-pyrrolo[3,4-b]pyridin-5-one]
mrna remaining at 1 µM: 84% | mrna remaining at 10 µM: 19%

EC50: 2310 nM
Compound: CC[C@]12CC[C@](C)(C[C@@H](Oc3ccc(N4Cc5ncc(-c6cn(C)nc6C)cc5C4=O)nn3)C1)N2 [Compound 240, 3-(1,3-dimethyl-1H-pyrazol-4-yl)-6-(6-(((1S,3R,5R)-1-ethyl-5-methyl-8-azabicyclo[3.2.1]octan-3-yl)oxy)pyridazin-3-yl)-6,7-dihydro-5H-pyrrolo[3,4-b]pyridin-5-one]
mrna remaining at 1 µM: 87% | mrna remaining at 10 µM: 16%

Compound: Cn1cc(-c2cnc3c(c2)C(=O)N(c2ccc(O[C@H]4C[C@]5(C)CC[C@](C)(C4)N5)nn2)C3)c(Cl)n1 [Compound 261, 3-(3-chloro-1-methyl-1H-pyrazol-4-yl)-6-(6-(((1R,3s,5S)-1,5-dimethyl-8-azabicyclo[3.2.1]octan-3-yl)oxy)pyridazin-3-yl)-6,7-dihydro-5H-pyrrolo[3,4-b]pyridin-5-one]
mrna remaining at 1 µM: 48% | mrna remaining at 10 µM: 7%

Compound: Cc1nn(C)cc1-c1cc(F)c2c(c1)C(=O)N(c1ccc(N(C)[C@H]3C[C@]4(C)CC[C@](C)(C3)N4)nn1)C2 [Compound 274, 6-(1,3-dimethyl-1H-pyrazol-4-yl)-2-(6-(((1R,3s,5S)-1,5-dimethyl-8-azabicyclo[3.2.1]octan-3-yl)(methyl)amino)pyridazin-3-yl)-4-fluoroisoindolin-1-one]
EC50: 454 nM | mrna remaining at 1 µM: 17%

Compound: Cc1nn(C)cc1-c1cc(F)c2c(c1)C(=O)N(c1ccc(N(C)C3CC(C)(C)NC(C)(C)C3)nn1)C2 [Compound 275, 6-(1,3-dimethyl-1H-pyrazol-4-yl)-4-fluoro-2-(6-(methyl(2,2,6,6-tetramethylpiperidin-4-yl)amino)pyridazin-3-yl)isoindolin-1-one]
mrna remaining at 1 µM: 79% | mrna remaining at 10 µM: 26%

Compound: Cc1nn(C)cc1-c1cc(F)c2c(c1)C(=O)N(c1ccc(OC3CC(C)(C)NC(C)(C)C3)nn1)C2 [Compound 276, 6-(1,3-dimethyl-1H-pyrazol-4-yl)-4-fluoro-2-(6-((2,2,6,6-tetramethylpiperidin-4-yl)oxy)pyridazin-3-yl)isoindolin-1-one]
mrna remaining at 1 µM: 103% | mrna remaining at 10 µM: 38%

Compound: Cc1nn(C)cc1-c1cc(F)c2c(c1)C(=O)N(c1ccc(O[C@H]3C[C@]4(C)CC[C@](C)(C3)N4)nn1)C2 [Compound 278, 6-(1,3-dimethyl-1H-pyrazol-4-yl)-2-(6-(((1R,3s,5S)-1,5-dimethyl-8-azabicyclo[3.2.1]octan-3-yl)oxy)pyridazin-3-yl)-4-fluoroisoindolin-1-one]
mrna remaining at 1 µM: 64% | mrna remaining at 10 µM: 14%

Compound: Cc1nn(C)cc1-c1cc(F)c2c(c1)C(=O)N(c1ccc(O[C@H]3CC(C)(C)NC(C)(C)[C@H]3F)nn1)C2 [Compound 280, 6-(1,3-dimethyl-1H-pyrazol-4-yl)-4-fluoro-2-(6-(((3R,4S)-3-fluoro-2,2,6,6-tetramethylpiperidin-4-yl)oxy)pyridazin-3-yl)isoindolin-1-one]
mrna remaining at 1 µM: 99% | mrna remaining at 10 µM: 66%

Compound: Cc1nn(C)cc1-c1cc(F)c2c(c1)C(=O)N(c1ccc(O[C@H]3C[C@]4(C)CC[C@@](C)(N4)[C@H]3F)nn1)C2 [Compound 281, 6-(1,3-dimethyl-1H-pyrazol-4-yl)-4-fluoro-2-(6-(((1R,2R,3S,5S)-2-fluoro-1,5-dimethyl-8-azabicyclo[3.2.1]octan-3-yl)oxy)pyridazin-3-yl)isoindolin-1-one]
mrna remaining at 1 µM: 85% | mrna remaining at 10 µM: 41%

Compound: Cc1nn(C)nc1-c1cc(F)c2c(c1)C(=O)N(c1ccc(OC3CC(C)(C)NC(C)(C)C3)nn1)C2 [Compound 282, 6-(2,5-dimethyl-2H-1,2,3-triazol-4-yl)-4-fluoro-2-(6-((2,2,6,6-tetramethylpiperidin-4-yl)oxy)pyridazin-3-yl)isoindolin-1-one]
mrna remaining at 1 µM: 30% | mrna remaining at 10 µM: 59%
